Source: ChEMBL document CHEMBL4184317, “Discovery of Tetrahydroquinoxalines as Bromodomain and Extra-Terminal Domain (BET) Inhibitors with Selectivity for the Second Bromodomain” (J Med Chem, 2018)

How the values were obtained:
[1] = system: PBMC; test: cells; settings: Homo sapiens, read-out: pIC50 (converted)
Description: Antiinflammatory activity in human PBMC assessed as inhibition of LPS-induced MCP1 release preincubated for 30 mins followed by LPS challenge measured after 24 hrs by immunoassay

[2] = buffer, pH 7.4
Description: Chromatographic hydrophobicity index, log D of the compound at pH 7.4 by HPLC method

[3] = target: Bromodomain-containing protein 4 (Homo sapiens, UniProt O60885, Y97A)
[4] = target: Bromodomain-containing protein 4 (Homo sapiens, UniProt O60885, Y390A)

`CC(=O)N1c2ccccc2N(Cc2ccccc2CO)CC1C1CC1` (single isomer, unassigned) gave an IC50 [1] of 1000 nM, a logD [2] of 4.7 and an IC50 [3] of 200 nM. For the same molecule, the IC50 [4] was 15800 nM.
